Experimental data: PubChem BioAssay (NCI)
Where “and” joins values, the source holds several entries; their conditions need not be identical. Equal entries are not always repeated.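 Interpolation was linear, between the two tested concentrations surrounding the appropriate level; five concentrations were tested over 48 hours in 96-well plates. Abbreviation: GI50, concentration required for 50% inhibition of growth. TGI: concentration producing complete growth inhibition.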

Tests used:
Assay in all cases: DTP human tumour cell line panel, 48 h
786-0 renal = system: 786-0 renal
A498 renal = system: A498 renal
A549 NSCLC = system: A549 NSCLC
ACHN renal = system: ACHN renal
BT-549 breast = system: BT-549 breast
CAKI-1 renal = system: CAKI-1 renal
CCRF-CEM leukemia = system: CCRF-CEM leukemia
COLO 205 colon = system: COLO 205 colon
DU-145 prostate = system: DU-145 prostate
EKVX NSCLC = system: EKVX NSCLC
HCC-2998 colon = system: HCC-2998 colon
HCT-116 colon = system: HCT-116 colon
HCT-15 colon = system: HCT-15 colon
HL-60(TB) leukemia = system: HL-60(TB) leukemia
HOP-62 NSCLC = system: HOP-62 NSCLC
HOP-92 NSCLC = system: HOP-92 NSCLC
HS 578T breast = system: HS 578T breast
HT29 colon = system: HT29 colon
IGROV1 ovarian = system: IGROV1 ovarian
K-562 leukemia = system: K-562 leukemia
KM12 colon = system: KM12 colon
LOX IMVI melanoma = system: LOX IMVI melanoma
M14 melanoma = system: M14 melanoma
MALME-3M melanoma = system: MALME-3M melanoma
MCF7 breast = system: MCF7 breast
MDA-MB-231 breast = system: MDA-MB-231 breast
MDA-MB-435 = system: MDA-MB-435
MOLT-4 leukemia = system: MOLT-4 leukemia
NCI-H226 lung = system: NCI-H226 lung
NCI-H23 lung = system: NCI-H23 lung
NCI-H460 lung = system: NCI-H460 lung
NCI-H522 lung = system: NCI-H522 lung
NCI/ADR-RES ovarian = system: NCI/ADR-RES ovarian
OVCAR-3 ovarian = system: OVCAR-3 ovarian
OVCAR-4 ovarian = system: OVCAR-4 ovarian
OVCAR-5 ovarian = system: OVCAR-5 ovarian
OVCAR-8 ovarian = system: OVCAR-8 ovarian
PC-3 prostate = system: PC-3 prostate
RPMI-8226 leukemia = system: RPMI-8226 leukemia
RXF 393 renal = system: RXF 393 renal
SF-268 CNS = system: SF-268 CNS
SF-295 CNS = system: SF-295 CNS
SF-539 CNS = system: SF-539 CNS
SK-MEL-2 melanoma = system: SK-MEL-2 melanoma
SK-MEL-28 melanoma = system: SK-MEL-28 melanoma
SK-MEL-5 melanoma = system: SK-MEL-5 melanoma
SK-OV-3 ovarian = system: SK-OV-3 ovarian
SN12C renal = system: SN12C renal
SNB-19 CNS = system: SNB-19 CNS
SNB-75 CNS = system: SNB-75 CNS
SR leukemia = system: SR leukemia
SW-620 colon = system: SW-620 colon
T-47D breast = system: T-47D breast
TK-10 renal = system: TK-10 renal
U251 CNS = system: U251 CNS
UACC-257 melanoma = system: UACC-257 melanoma
UACC-62 melanoma = system: UACC-62 melanoma
UO-31 renal = system: UO-31 renal

## COC(=O)C1=CN(CC2=CC(=O)C(C)=CC2=O)C=C(C(=O)OC)C1c1cccc(OC)c1OC
786-0 renal
  GI50: 7.56 µM
  TGI: 25.3 µM
A498 renal
  GI50: 20.8 µM
  TGI: 55.2 µM
A549 NSCLC
  GI50: 13 µM
  TGI: > 51.5 µM
ACHN renal
  GI50: 6.69 µM
  TGI: 22.2 µM
BT-549 breast
  GI50: 34.3 µM
  TGI: > 100 µM
CAKI-1 renal
  GI50: 10.9 µM
  TGI: 29.7 µM
CCRF-CEM leukemia
  GI50: 12.5 µM
  TGI: 77.9 µM
COLO 205 colon
  GI50: 9.81 µM
  TGI: > 32.6 µM
DU-145 prostate
  GI50: 17.4 µM
  TGI: 33.1 µM
EKVX NSCLC
  GI50: 35.6 µM
  TGI: > 100 µM
HCC-2998 colon
  GI50: 14.2 µM
  TGI: 27.2 µM
HCT-116 colon
  GI50: 18.5 µM
  TGI: 36.7 µM
HCT-15 colon
  GI50: 18.4 µM
  TGI: 36.9 µM
HL-60(TB) leukemia
  GI50: 5.07 µM
  TGI: 14.1 µM
HOP-62 NSCLC
  GI50: 15.8 µM
  TGI: > 48.1 µM
HOP-92 NSCLC
  GI50: 2.68 µM
  TGI: 17.1 µM
HS 578T breast
  GI50: 27.1 µM
  TGI: > 87.3 µM
HT29 colon
  GI50: 41.1 µM
  TGI: > 100 µM
IGROV1 ovarian
  GI50: 17.4 µM
  TGI: 47.3 µM
K-562 leukemia
  GI50: 3.62 µM
  TGI: 26 µM
KM12 colon
  GI50: 18 µM
  TGI: 57.2 µM
LOX IMVI melanoma
  GI50: 20 µM
  TGI: 45.2 µM
M14 melanoma
  GI50: 15.3 µM
  TGI: 29.4 µM
MALME-3M melanoma
  GI50: 13.5 µM
  TGI: 34.3 µM
MCF7 breast
  GI50: 18.6 µM
  TGI: 55.2 µM
MDA-MB-231 breast
  GI50: 11.8 µM
  TGI: 28.9 µM
MDA-MB-435
  GI50: 15.8 µM
  TGI: 39.3 µM
MOLT-4 leukemia
  GI50: 3.28 µM
  TGI: 9.68 µM
NCI-H226 lung
  GI50: 15.6 µM
  TGI: 40.5 µM
NCI-H23 lung
  GI50: 22.4 µM
  TGI: > 55.1 µM
NCI-H460 lung
  GI50: 19.7 µM
  TGI: > 70.7 µM
NCI-H522 lung
  GI50: 17 µM
  TGI: 45.2 µM
NCI/ADR-RES ovarian
  GI50: 18.3 µM
  TGI: 38.3 µM
OVCAR-3 ovarian
  GI50: 8.19 µM
  TGI: 24 µM
OVCAR-4 ovarian
  GI50: 12 µM
  TGI: > 60.5 µM
OVCAR-5 ovarian
  GI50: 18.7 µM
  TGI: 36.3 µM
OVCAR-8 ovarian
  GI50: 16.2 µM
  TGI: 42.8 µM
PC-3 prostate
  GI50: 15.3 µM
  TGI: 38.6 µM
RPMI-8226 leukemia
  GI50: 3.09 µM
  TGI: 10.9 µM
RXF 393 renal
  GI50: 11.5 µM
  TGI: 26.9 µM
SF-268 CNS
  GI50: 18.7 µM
  TGI: > 68.4 µM
SF-295 CNS
  GI50: 6.88 µM
  TGI: > 41.8 µM
SF-539 CNS
  GI50: 17.1 µM
  TGI: 56.2 µM
SK-MEL-2 melanoma
  GI50: 19.8 µM
  TGI: 52.1 µM
SK-MEL-28 melanoma
  GI50: 31 µM
  TGI: > 57.9 µM
SK-MEL-5 melanoma
  GI50: 15.2 µM
  TGI: 32.6 µM
SK-OV-3 ovarian
  GI50: 42.8 µM
  TGI: > 61.5 µM
SN12C renal
  GI50: 13.8 µM
  TGI: 34 µM
SNB-19 CNS
  GI50: > 43.1 µM
  TGI: > 70 µM
SNB-75 CNS
  GI50: > 100 µM
  TGI: > 100 µM
SR leukemia
  GI50: 1.08 µM
  TGI: 13.8 µM
SW-620 colon
  GI50: 19.4 µM
  TGI: > 70.6 µM
T-47D breast
  GI50: 46.2 µM
  TGI: > 94.4 µM
TK-10 renal
  GI50: 8.35 µM
  TGI: 27.1 µM
U251 CNS
  GI50: 18.6 µM
  TGI: 50.2 µM
UACC-257 melanoma
  GI50: 18.5 µM
  TGI: 43.5 µM
UACC-62 melanoma
  GI50: 13 µM
  TGI: 30.4 µM
UO-31 renal
  GI50: 12.9 µM
  TGI: 25.5 µM

## Cn1cnc2c(F)c(Nc3ccc(Br)cc3Cl)c(C(=O)NOCCO)cc21
786-0 renal
  GI50: > 10 µM and 60.6 µM
  TGI: > 100 µM
A498 renal
  GI50: 0.103 µM and 0.16 µM
  TGI: 1.86 µM and 4.1 µM
A549 NSCLC
  GI50: 6.85 µM and 10.8 µM
  TGI: > 100 µM
ACHN renal
  GI50: 9.92 µM and 29 µM
  TGI: > 100 µM
BT-549 breast
  GI50: > 10 µM and 30 µM
  TGI: > 100 µM
CAKI-1 renal
  GI50: > 2.6 µM and 17.9 µM
  TGI: > 100 µM
CCRF-CEM leukemia
  GI50: > 94.6 µM
  TGI: > 100 µM
COLO 205 colon
  GI50: 0.0211 µM and < 0.0137 µM
  TGI: > 15.1 µM
DU-145 prostate
  GI50: > 10 µM and 74.6 µM
  TGI: > 100 µM
EKVX NSCLC
  GI50: 0.734 µM and 3.88 µM
  TGI: > 100 µM
HCC-2998 colon
  GI50: 0.0213 µM and < 0.0171 µM
  TGI: > 10 µM and 2.77 µM
HCT-116 colon
  GI50: 0.648 µM and 1.07 µM
  TGI: > 100 µM
HCT-15 colon
  GI50: > 10 µM and 40.5 µM
  TGI: > 100 µM
HL-60(TB) leukemia
  GI50: 0.0218 µM
  TGI: > 10 µM and 5.35 µM
HOP-62 NSCLC
  GI50: 0.399 µM and 0.232 µM
  TGI: > 100 µM
HOP-92 NSCLC
  GI50: 0.197 µM and 0.235 µM
  TGI: 6.14 µM and 8.67 µM
HS 578T breast
  GI50: > 10 µM and 32.5 µM
  TGI: > 100 µM
HT29 colon
  GI50: 0.0278 µM and 0.0265 µM
  TGI: > 100 µM
IGROV1 ovarian
  GI50: 0.264 µM and 1.34 µM
  TGI: > 100 µM
K-562 leukemia
  GI50: > 10 µM and 12.3 µM
  TGI: > 100 µM
KM12 colon
  GI50: 0.685 µM and 0.847 µM
  TGI: > 100 µM
LOX IMVI melanoma
  GI50: 1.26 µM and 1.45 µM
  TGI: > 80.9 µM
M14 melanoma
  GI50: 0.0271 µM and < 0.0144 µM
  TGI: > 6.91 µM and 4.53 µM
MALME-3M melanoma
  GI50: < 0.0187 µM
  TGI: 0.018 µM
MCF7 breast
  GI50: > 100 µM
  TGI: > 100 µM
MDA-MB-231 breast
  GI50: 0.822 µM and 1.94 µM
  TGI: > 100 µM
MDA-MB-435
  GI50: 0.0709 µM and 0.0294 µM
  TGI: > 100 µM
MOLT-4 leukemia
  GI50: > 10 µM and 62.2 µM
  TGI: > 100 µM
NCI-H226 lung
  GI50: > 10 µM and 23.9 µM
  TGI: > 100 µM
NCI-H23 lung
  GI50: 0.74 µM and 1.04 µM
  TGI: > 100 µM
NCI-H460 lung
  GI50: > 10 µM and 32.3 µM
  TGI: > 100 µM
NCI-H522 lung
  GI50: > 10 µM and 61.3 µM
  TGI: > 100 µM
NCI/ADR-RES ovarian
  GI50: > 100 µM
  TGI: > 100 µM
OVCAR-3 ovarian
  GI50: > 10 µM and 62.9 µM
  TGI: > 100 µM
OVCAR-4 ovarian
  GI50: > 10 µM and 22.7 µM
  TGI: > 100 µM
OVCAR-5 ovarian
  TGI: > 100 µM
OVCAR-8 ovarian
  GI50: > 10 µM and 67.9 µM
  TGI: > 100 µM
PC-3 prostate
  GI50: > 100 µM
  TGI: > 100 µM
RPMI-8226 leukemia
  GI50: > 10 µM and 28.2 µM
  TGI: > 100 µM
RXF 393 renal
  GI50: 1.9 µM and 9.28 µM
  TGI: > 10 µM and 78 µM
SF-268 CNS
  GI50: > 10 µM and 60.5 µM
  TGI: > 100 µM
SF-295 CNS
  GI50: > 10 µM and 67.2 µM
  TGI: > 100 µM
SF-539 CNS
  GI50: > 10 µM and 22.4 µM
  TGI: > 100 µM
SK-MEL-2 melanoma
  GI50: 0.0262 µM and < 0.0122 µM
  TGI: 0.78 µM and 0.565 µM
SK-MEL-28 melanoma
  GI50: 0.0269 µM and 0.0268 µM
  TGI: > 2.81 µM and 2.52 µM
SK-MEL-5 melanoma
  GI50: 2.4 µM and 0.95 µM
  TGI: > 100 µM
SK-OV-3 ovarian
  GI50: > 10 µM and 63.4 µM
  TGI: > 100 µM
SN12C renal
  GI50: > 10 µM and 47.6 µM
  TGI: > 100 µM
SNB-19 CNS
  GI50: > 10 µM and 40.4 µM
  TGI: > 100 µM
SNB-75 CNS
  GI50: > 10 µM and 60.4 µM
  TGI: > 100 µM
SR leukemia
  GI50: > 10 µM and 5.85 µM
  TGI: > 33.8 µM
SW-620 colon
  GI50: 0.0436 µM and 0.0226 µM
  TGI: > 100 µM
T-47D breast
  GI50: > 10 µM and 82.4 µM
  TGI: > 100 µM
TK-10 renal
  GI50: 0.183 µM and 1.62 µM
  TGI: > 100 µM
U251 CNS
  GI50: > 8.16 µM and 30.1 µM
  TGI: > 100 µM
UACC-257 melanoma
  GI50: 0.0212 µM and < 0.0177 µM
  TGI: 0.207 µM and 0.0755 µM
UACC-62 melanoma
  GI50: 0.0123 µM and 0.0212 µM
UO-31 renal
  GI50: 1.45 µM and 3.38 µM
  TGI: > 66 µM
